Key:
[1] = test system: TSLP secretion from human mast cells (HMC-1 cells); experiment: TSLP secretion ELISA in PMACI-stimulated mast cells; assay type: cell-based
Method: (1) Cell culture: A human mast cell line (HMC-1) was cultured in an IMDM supplemented with 10% FBS at 37° C. and 5% CO2. Candidate materials were dissolved in DMSO, and then filtered using a 0.22 μm filter. The resulting candidate materials were diluted with DMSO and the HMC-1 cells were treated therewith.
(3) Enzyme-linked immunosorbent assay (ELISA): Mast cells (3×10^6 cells/ml) were stabilized for 1 hour, and then treated with 0.1 μM, 1 μM, and 10 μM of candidate materials, followed by treatment with PMACI for 8 hours. The mast cells were centrifuged to obtain supernatants. To measure the amount of TSLP secreted from the cells, ELISA was used. The ELISA was performed in 96-well plates coated with 1 μg/well of TSLP capture Ab. The coated plates were washed twice with PBS. The cells were treated with PBS containing 10% FBS for 2 hours. Thereafter, the cells were washed with PBS containing 0.05% Tween-20 (Sigma), and recombinant TSLP was used to draw a standard curve. Subsequently, the plates were exposed to a biotinylated-TSLP antibody, Avidin peroxidase, an ARTS substrate containing 30% H2O2, and then measured at 405 nm.

SD rats = experiment: Acute dermal toxicity test; assay type: in vivo; details: for Number of death on day 1 / Number of death on day 2 / Number of death on day 3 / Number of death on day 4 / Number of death on day 5 / Number of death on day 6 / Number of death on day 7 / Number of death on day 8-14 / Number of death on day 0: dose group 200 (head μg/kg bw); for Number of death on day 0: single transdermal
Method: (1) Environmental Conditions: In the present experiment, experimental animals were bred in a clean animal breeding room (small animal room #2-302) at Hoseo University Safety Evaluation Center, set under environmental conditions: temperature of 22±3° C.; relative humidity of 50±20%; ventilation frequency of 10 to 15 times/hour; illumination period of 12 hours; and illuminance of 150 Lux to 300 Lux.
(2) Cages and rugs: Two or three animals per sex were accommodated in each of polycarbonate cages (270×500×200 mm, KYERYONG SCIENCE) with a stainless steel mesh lid during an acclimation period, and after group division, 1 animal per sex was accommodated therein. As the rugs, sterile betachips (NEPCO) irradiated with gamma rays were used.
(3) Feed and drinking water: The animals were fed freely a mouse feed for laboratory, animals (5053-Picolab Rodent 20) manufactured by PMI Nutrition International, and filtered water treated with ultraviolet sterilization (R/O water) was freely supplied as drinking water.
(4) Examination of contaminant in feed and drinking water: Contaminants in the feed were examined by receiving a test result from the feed manufacturer, and the quality of drinking water was checked for contamination by regular inspection according to the corresponding SOP of the present test institute and it was confirmed that there were no contaminants.
(A) About 24 hours before administration, hairs on the dorsal part was removed such that the hair-removed site accounted for about 10% or more of the entire surface area thereof, and attention was paid not to injure the skin.
(B) On the day of administration, a dosage for each individual was calculated, and then a test material was sufficiently wetted with a solvent and then applied on the site corresponding to about 10% (about 44 cm) of the entire surface area.
(C) The test material was kept in contact with the skin using a porous gauze, a non-irritating tape, and a bandage during the 24-hour exposure period.
(D) When the exposure period was terminated, the remaining test material was removed using tepid water.
(A) General symptom observation: All animals were observed intensively from 30 minutes to 4 hours after administration, and general symptoms were observed once a day for 14 days. At the time of observation, death and clinical symptoms were recorded on an individual basis.
(B) Body weight measurement: All animals were measured at the time of receipt, at the time of group division, immediately before administration (day of administration), and on day 1, day 4, day 7, day 10, and day 14 after initiation of administration.
(C) Autopsy: During the test, dead animals were immediately autopsied and organs were inspected with the naked eye, and at the end of the test, all living animals were euthanized by CO2 gas inhalation and venesectioned, and then the organs visually examined.
(E) Statistical analysis: Body weight data were expressed as mean and standard deviation, and no statistical analysis of body weight was performed.

[2] = test system: balb/c mice with DNCB-induced atopic dermatitis; experiment: DNCB-induced atopic dermatitis model; assay type: in vivo; details: DNCB-applied balb/c mice, concentration of 0.011 μM (so in the source)

Compound: Cl.N=C(N)NC(=N)Nc1ccc(Cl)cc1 [IPS-07001]
- TSLP production ([1]; HMC-1 cells, concentration of 0.011 μM (so in the source), non-cytotoxic): significantly regulated
- TSLP secretion from mast cells ([1]; PMACI-stimulated HMC-1 cells, ELISA): significantly inhibited
- Number of death on day 1 (SD rats; Female): 0
- Number of death on day 2 (SD rats; Female): 0
- Number of death on day 3 (SD rats; Female): 0
- Number of death on day 4 (SD rats; Female): 0
- Number of death on day 5 (SD rats; Female): 0
- Number of death on day 6 (SD rats; Female): 0
- Number of death on day 7 (SD rats; Female): 0
- Number of death on day 8-14 (SD rats; Female): 0
- Number of death on day 0 (SD rats; Female): 0
- Number of death on day 1 (SD rats; Male): 0
- Number of death on day 2 (SD rats; Male): 0
- Number of death on day 3 (SD rats; Male): 0
- Number of death on day 4 (SD rats; Male): 0
- Number of death on day 5 (SD rats; Male): 0
- Number of death on day 6 (SD rats; Male): 0
- Number of death on day 7 (SD rats; Male): 0
- Number of death on day 8-14 (SD rats; Male): 0
- Number of death on day 0 (SD rats; Male): 0
- dead animals during the test period (SD rats; all test material-administered groups, 14 days): No dead animals
- Gross findings (internal and external) (SD rats; rat, in vivo): NGF ^a)
- body weight from day 2 (SD rats; rat, in vivo): normal body weight increase pattern
- body weight on day 1 after administration (SD rats; rat, in vivo): decrease in body weight
- clinical symptoms, 4 hour (SD rats; rat, in vivo): NCS
- clinical symptoms, Day 1 (SD rats; rat, in vivo): NCS
- clinical symptoms, Day 2 (SD rats; rat, in vivo): NCS
- clinical symptoms, Day 3 (SD rats; rat, in vivo): NCS
- clinical symptoms, Day 4 (SD rats; rat, in vivo): NCS
- clinical symptoms, Day 5 (SD rats; rat, in vivo): NCS
- clinical symptoms, Day 6 (SD rats; rat, in vivo): NCS
- clinical symptoms, Day 7 (SD rats; rat, in vivo): NCS
- clinical symptoms, Day 8 (SD rats; rat, in vivo): NCS
- clinical symptoms, Day 9 (SD rats; rat, in vivo): NCS
- clinical symptoms, Day 10-14 (SD rats; rat, in vivo): NCS
- visual pathological examination (autopsy) (SD rats; surviving animals after observation period): no individual showed any abnormalities
- IL-6 level in dorsal skin [2]: significantly regulated
